Measured values from patent publication US11192891B2, “Diazaspiro ROCK inhibitors” (BRISTOL-MYERS SQUIBB COMPANY, priority 2017, dated 2021).

molecular target: ROCK2 (Homo sapiens, UniProt O75116); test: ROCK kinase inhibition assay, FITC peptide substrate, LABCHIP 3000 readout; type: biochemical; conditions: 5 μM ATP, 1.5 μM peptide substrate
Method: Compounds were dissolved in DMSO so that the final concentration of DMSO was <2%, and the reaction was initiated with Rho kinase variants. After incubation, the reaction was terminated by the addition of EDTA and the phosphorylated and non-phosphorylated peptides separated using a LABCHIP® 3000 Reader (Caliper Life Sciences). […] Compounds were tested in dose-response format, and the inhibition of kinase activity was calculated at each concentration of compound.

Sequence of ROCK2 (O75116 whole entry, species assumed): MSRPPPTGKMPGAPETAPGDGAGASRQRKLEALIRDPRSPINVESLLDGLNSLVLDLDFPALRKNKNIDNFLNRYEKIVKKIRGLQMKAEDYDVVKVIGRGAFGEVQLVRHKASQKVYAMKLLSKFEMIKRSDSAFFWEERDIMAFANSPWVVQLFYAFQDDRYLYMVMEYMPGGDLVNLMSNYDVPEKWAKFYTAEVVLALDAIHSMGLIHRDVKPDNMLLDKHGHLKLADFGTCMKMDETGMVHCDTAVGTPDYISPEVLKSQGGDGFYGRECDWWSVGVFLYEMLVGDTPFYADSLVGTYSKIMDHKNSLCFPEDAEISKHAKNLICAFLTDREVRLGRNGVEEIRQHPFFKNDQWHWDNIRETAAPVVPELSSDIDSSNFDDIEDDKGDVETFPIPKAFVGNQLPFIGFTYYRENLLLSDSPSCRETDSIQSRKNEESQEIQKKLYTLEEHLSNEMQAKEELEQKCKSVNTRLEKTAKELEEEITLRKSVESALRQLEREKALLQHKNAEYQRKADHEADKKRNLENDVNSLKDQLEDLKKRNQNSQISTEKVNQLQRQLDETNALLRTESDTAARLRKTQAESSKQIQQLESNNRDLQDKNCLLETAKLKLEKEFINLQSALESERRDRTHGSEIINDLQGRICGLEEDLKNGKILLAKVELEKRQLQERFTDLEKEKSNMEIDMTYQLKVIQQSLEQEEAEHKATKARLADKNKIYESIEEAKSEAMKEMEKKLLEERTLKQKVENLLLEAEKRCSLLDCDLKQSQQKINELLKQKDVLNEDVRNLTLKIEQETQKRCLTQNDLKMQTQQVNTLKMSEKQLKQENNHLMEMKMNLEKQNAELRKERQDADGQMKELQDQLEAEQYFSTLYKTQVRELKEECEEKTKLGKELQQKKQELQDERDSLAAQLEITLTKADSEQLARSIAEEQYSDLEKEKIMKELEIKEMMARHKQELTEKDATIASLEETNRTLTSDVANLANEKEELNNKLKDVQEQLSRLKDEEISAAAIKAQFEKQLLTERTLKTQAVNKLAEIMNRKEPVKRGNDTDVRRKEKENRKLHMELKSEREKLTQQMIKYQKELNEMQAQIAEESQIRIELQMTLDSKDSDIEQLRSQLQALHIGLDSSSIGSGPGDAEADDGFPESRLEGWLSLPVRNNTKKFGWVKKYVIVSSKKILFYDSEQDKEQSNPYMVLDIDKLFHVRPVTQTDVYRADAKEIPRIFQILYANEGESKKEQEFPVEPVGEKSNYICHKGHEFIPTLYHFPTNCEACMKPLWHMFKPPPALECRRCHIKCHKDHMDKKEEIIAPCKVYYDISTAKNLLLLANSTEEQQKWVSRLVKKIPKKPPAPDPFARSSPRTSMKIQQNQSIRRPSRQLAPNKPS

SMILES	IC50
COc1cc(N2CCC3(CCN(C(=O)C4CCN(S(C)(=O)=O)CC4)CC3)C2=O)ccc1-c1cn[nH]c1 [Example 154, 8-(1-methanesulfonylpiperidine-4-carbonyl)-2-[3-methoxy-4-(1H-pyrazol-4-yl)phenyl]-2,8-diazaspiro[4.5]decan-1-one]	2 µM
COc1cc(N2CCC3(CCN(C(=O)c4ccc(Oc5ncccn5)cc4)CC3)C2=O)ccc1-c1cn[nH]c1 [Example 105, 2-[3-methoxy-4-(1H-pyrazol-4-yl)phenyl]-8-[4-(pyrimidin-2-yloxy)benzoyl]-2,8-diazaspiro[4.5]decan-1-one]	0.078 µM
COc1ccc(C(=O)N2CCC3(CC2)CCN(c2ccc(-c4cn[nH]c4)c(OC)c2)C3=O)c(OC)n1 [Example 80, 8-(2,6-dimethoxypyridine-3-carbonyl)-2-[3-methoxy-4-(1H-pyrazol-4-yl)phenyl]-2,8-diazaspiro[4.5]decan-1-one]	0.099 µM
COc1cc(N2CCC3(CCN(C(=O)c4cc(C(F)(F)F)n(C)n4)CC3)C2=O)ccc1-c1cn[nH]c1 [Example 107, 2-[3-methoxy-4-(1H-pyrazol-4-yl)phenyl]-8-[1-methyl-S-(trifluoromethyl)-1H-pyrazole-3-carbonyl]-2,8-diazaspiro[4.5]decan-1-one]	0.067 µM
COc1ccc(C(=O)N2CCC3(CC2)CCN(c2cccc(-c4ccc5[nH]ncc5c4)c2)C3=O)cc1 [Example 52, 2-[3-(1H-indazol-5-yl)phenyl]-8-(4-methoxybenzoyl)-2,8-diazaspiro[4.5]decan-1-one]	1.87 µM
COc1ccccc1C(=O)N1CCC2(CC1)CCN(c1ccc(-c3cn[nH]c3)cc1)C2=O [Example 3, 8-(2-methoxybenzoyl)-2-[4-(1H-pyrazol-4-yl)phenyl]-2,8-diazaspiro[4.5]decan-1-one]	0.16 µM
COc1cc(N2CCC3(CCN(C(=O)c4cccn4C)CC3)C2=O)ccc1-c1cn[nH]c1 [Example 62, 2-[3-methoxy-4-(1H-pyrazol-4-yl)phenyl]-8-(1-methyl-1H-pyrrole-2 carbonyl)-2,8-diazaspiro[4.5]decan-1-one]	1.43 µM
COc1cc(N2CCC3(CCN(C(=O)c4cccc(C(F)(F)F)c4)CC3)C2=O)ccc1-c1cn[nH]c1 [Example 58, 2-[3-methoxy-4-(1H-pyrazol-4-yl)phenyl]-8-[3-(trifluoromethyl)benzoyl]-2,8-diazaspiro[4.5]decan-1-one]	0.144 µM
COc1cc(N2CCC3(CCN(C(=O)c4ccc5c(c4)CNC5=O)CC3)C2=O)ccc1-c1cn[nH]c1 [Example 144, 2-[3-methoxy-4-(1H-pyrazol-4-yl)phenyl]-8-(1-oxo-2,3-dihydro-1H-isoindole-5-carbonyl)-2,8-diazaspiro[4.5]decan-1-one]	0.094 µM
COc1ncc(C(=O)N2CCC3(CC2)CCN(c2ccc(-c4cn[nH]c4)c(OC)c2)C3=O)cn1 [Example 99, 2-[3-methoxy-4-(1H-pyrazol-4-yl)phenyl]-8-(2-methoxypyrimidine-5-carbonyl)-2,8-diazaspiro[4.5]decan-1-one]	0.464 µM
COc1cc(N2CCC3(CCN(C(=O)c4cccc5cccnc45)CC3)C2=O)ccc1-c1cn[nH]c1 [Example 149, 2-[3-methoxy-4-(1H-pyrazol-4-yl)phenyl]-8-(quinoline-8-carbonyl)-2,8-diazaspiro[4.5]decan-1-one]	0.251 µM
COc1cc(N2CCC3(CCN(C(=O)c4cnc(C)nc4)CC3)C2=O)ccc1-c1cn[nH]c1 [Example 121, 2-[3-methoxy-4-(1H-pyrazol-4-yl)phenyl]-8-(2-methylpyrimidine-5-carbonyl)-2,8-diazaspiro[4.5]decan-1-one]	0.585 µM
COc1cc(N2CCC3(CCN(C(=O)c4ccsc4)CC3)C2=O)ccc1-c1cn[nH]c1 [Example 67, 2-[3-methoxy-4-(1H-pyrazol-4-yl)phenyl]-8-(thiophene-3-carbonyl)-2,8-diazaspiro[4.5]decan-1-one]	0.382 µM
COc1cc(N2CCC3(CCN(C(=O)Nc4ccc(N(C)C)cc4)CC3)C2=O)ccc1-c1cn[nH]c1 [Example 215, N-[4-(dimethylamino)phenyl]-2-[3-methoxy-4-(1H-pyrazol-4-yl)phenyl]-1-oxo-2,8-diazaspiro[4.5]decane-8-carboxamide]	0.791 µM

The next compounds have a lower IC50 than those just listed; values first:

IC50	SMILES
0.022 µM	COc1cc(N2CCC3(CCN(C(=O)c4ccc5c(c4)OCC(=O)N5)CC3)C2=O)ccc1-c1cn[nH]c1 [Example 157, 7-{2-[3-methoxy-4-(1H-pyrazol-4-yl)phenyl]-1-oxo-2,8-diazaspiro[4.5]decane-8-carbonyl}-3,4-dihydro-2H-1,4-benzoxazin-3-one]
0.003 µM	COc1cc(N2CCC3(CCN(C(=O)c4cc(C)n5nc[nH]c(=O)c45)CC3)C2=O)ccc1-c1cn[nH]c1 [Example 132, 2-[3-methoxy-4-(1H-pyrazol-4-yl)phenyl]-8-{7-methyl-4-oxo-3H,4H-pyrrolo[2,1-f][1,2,4]triazine-5-carbonyl}-2,8-diazaspiro[4.5]decan-1-one]
0.0112 µM	COc1cc(N2CCC3(CCN(C(=O)c4ccc(N5CCOCC5)c(F)c4)CC3)C2=O)ccc1-c1cn[nH]c1 [Example 127, 8-[3-fluoro-4-(morpholin-4-yl)benzoyl]-2-[3-methoxy-4-(1H-pyrazol-4-yl)phenyl]-2,8-diazaspiro[4.5]decan-1-one]
0.04 µM	COc1cc(N2CCC3(CCN(C(=O)c4ccc5ccn(C)c5c4)CC3)C2=O)ccc1-c1cn[nH]c1 [Example 155, 2-[3-methoxy-4-(1H-pyrazol-4-yl)phenyl]-8-(1-methyl-1H-indole-6-carbonyl)-2,8-diazaspiro[4.5]decan-1-one]
0.054 µM	CN1CCN(c2ccc(C(=O)N3CCC4(CC3)CCN(c3ccc(-c5ccnc(O)c5)cc3)C4=O)cc2)CC1 [Example 32, 2-[4-(2-hydroxypyridin-4-yl)phenyl]-8-[4-(4-methylpiperazin-1-yl)benzoyl]-2,8-diazaspiro[4.5]decan-1-one]
0.021 µM	COc1ccc(C(=O)N2CCC3(CC2)CCN(c2ccc(-c4cn[nH]c4)cc2)C3=O)cc1 [Example 4, 8-(4-methoxybenzoyl)-2-[4-(1H-pyrazol-4-yl)phenyl]-2,8-diazaspiro[4.5]decan-1-one]
0.0004 µM	COc1cc(N2CCC3(CCN(C(=O)c4ccc(N5CCN(CCOCc6ccccc6)CC5)cc4)CC3)C2=O)ccc1-c1cn[nH]c1 [Example 221, 8-(4-{4-[2-(benzyloxy)ethyl]piperazin-1-yl}benzoyl)-2-[3-methoxy-4-(1H-pyrazol-4-yl)phenyl]-2,8-diazaspiro[4.5]decan-1-one]
0.017 µM	COc1cc(N2CCC3(CCN(C(=O)c4cc(C5CC5)n[nH]4)CC3)C2=O)ccc1-c1cn[nH]c1 [Example 111, 8-(3-cyclopropyl-1H-pyrazole-5-carbonyl)-2-[3-methoxy-4-(1H-pyrazol-4-yl)phenyl]-2,8-diazaspiro[4.5]decan-1-one]
0.026 µM	COc1cc(N2CCC3(CCN(C(=O)c4ccc5ncsc5c4)CC3)C2=O)ccc1-c1cn[nH]c1 [Example 83]
0.0089 µM	COc1cc(N2CCC3(CCN(C(=O)c4ccc(N5CCN(C(=O)OC(C)(C)C)CC5)cc4)CC3)C2=O)ccc1-c1cn[nH]c1 [Example 205, tert-butyl 4-(4-{2-[3-methoxy-4-(1H-pyrazol-4-yl)phenyl]-1-oxo-2,8-diazaspiro[4.5]decane-8-carbonyl}phenyl)piperazine-1-carboxylate]
0.0006 µM	COc1cc(N2CCC3(CCN(C(=O)c4ccc(N5CCN(CCc6ccccc6)CC5)cc4)CC3)C2=O)ccc1-c1cn[nH]c1 [Example 239, 2-[3-methoxy-4-(1H-pyrazol-4-yl)phenyl]-8-{4-[4-(2-phenylethyl)piperazin-1-yl]benzoyl}-2,8-diazaspiro[4.5]decan-1-one]
0.0008 µM	COc1cc(N2CCC3(CCN(C(=O)c4ccc(N5CCN(C)CC5)cc4Cl)CC3)C2=O)ccc1-c1cn[nH]c1 [Example 27, 8-[2-chloro-4-(4-methylpiperazin-1-yl)benzoyl]-2-[3-methoxy-4-(1H-pyrazol-4-yl)phenyl]-2,8-diazaspiro[4.5]decan-1-one]
0.001 µM	COc1cc(N2CCC3(CCN(C(=O)c4ccc(N5CCN(CCC(F)(F)F)CC5)cc4)CC3)C2=O)ccc1-c1cn[nH]c1 [Example 240, 2-[3-methoxy-4-(1H-pyrazol-4-yl)phenyl]-8-{4-[4-(3,3,3-trifluoropropyl)piperazin-1-yl]benzoyl}-2,8-diazaspiro[4.5]decan-1-one]
0.0001 µM	COc1cc(N2CCC3(CCN(C(=O)c4ccc(N5CCN(Cc6ccc(OCCCN(C)C)cc6)CC5)cc4)CC3)C2=O)ccc1-c1cn[nH]c1 [Example 237, 8-{4-[4-({4-[3-(dimethylamino)propoxy]phenyl}methyl)piperazin-1-yl]benzoyl}-2-[3-methoxy-4-(1H-pyrazol-4-yl)phenyl]-2,8-diazaspiro[4.5]decan-1-one]
0.0004 µM	COc1cc(N2CCC3(CCN(C(=O)c4ccc(N5CCN(CC(C)(C)C)CC5)cc4)CC3)C2=O)ccc1-c1cn[nH]c1 [Example 241, 8-{4-[4-(2,2-dimethylpropyl)piperazin-1-yl]benzoyl}-2-[3-methoxy-4-(1H-pyrazol-4-yl)phenyl]-2,8-diazaspiro[4.5]decan-1-one]
0.0054 µM	COc1cc(N2CCC3(CCN(C(=O)c4ccn5nc[nH]c(=O)c45)CC3)C2=O)ccc1-c1cn[nH]c1 [Example 202, 2-[3-methoxy-4-(1H-pyrazol-4-yl)phenyl]-8-{4-oxo-3H,4H-pyrrolo[2,1-f][1,2,4]triazine-5-carbonyl}-2,8-diazaspiro[4.5]decan-1-one]
0.007 µM	COc1cc(N2CCC3(CCN(C(=O)c4ccc(-n5ccccc5=O)cc4)CC3)C2=O)ccc1-c1cn[nH]c1 [Example 117, 2-[3-methoxy-4-(1H-pyrazol-4-yl)phenyl]-8-[4-(2-oxo-1,2-dihydropyridin-1-yl)benzoyl]-2,8-diazaspiro[4.5]decan-1-one]
0.053 µM	COc1cc(N2CCC3(CCN(C(=O)c4ccc(CO)cc4)CC3)C2=O)ccc1-c1cn[nH]c1 [Example 15, 8-[4-(hydroxymethyl)benzoyl]-2-[3-methoxy-4-(1H-pyrazol-4-yl)phenyl]-2,8-diazaspiro[4.5]decan-1-one]
